Laboratory results as given in patent EP4772500A1, “NOVEL ISOXAZOLE COMPOUND AS TM4SF5-SPECIFIC INHIBITOR AND USE THEREOF” (Seoul National University R&DB Foundation, priority 2023, dated 2025).
Where two headings read alike, the source gives them in different places.

Legend:
[1] = biological target: T1, Strep-TM4SF5 obtained from HEK293FT (Homo sapiens, UniProt O14894); assay: Binding of 14C-labelled ST-5-002 to pulled-down Strep-TM4SF5
T1 construct: expressed in transfected cells; host or cells: HEK293FT, transient transfection (48 h); protein captured on streptavidin agarose from the cell extract
T1 sequence (O14894 1-197): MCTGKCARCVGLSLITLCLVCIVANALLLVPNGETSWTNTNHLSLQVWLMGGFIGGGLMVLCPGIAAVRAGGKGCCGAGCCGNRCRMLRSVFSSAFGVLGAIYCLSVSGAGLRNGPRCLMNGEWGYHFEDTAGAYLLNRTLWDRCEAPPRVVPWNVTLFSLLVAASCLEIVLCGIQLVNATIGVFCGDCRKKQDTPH
Method: For Huh7KO cells, stable cell lines were established by infecting with a retrovirus inducing the expression of pBabe-HA-EV or pBabe-HA-TM4SF5. Cell extracts were obtained, and extracts containing 0.2 or 0.25 mg of protein were reacted with an anti-HA antibody and HA-tagged TM4SF5, or with streptavidin agarose resin for Strep-PD-L1 or Strep-TM4SF5 at 4°C for 2 hours for pulldown. Subsequently, in the presence or absence of cold ST-5-002 (400 µM), the samples were treated with ^14C-labelled ST-5-002 (10 or 25 µM) and reacted at 4°C for 1 hour, after which radioactive isotope values were repeatedly measured using a TriCarb scintillation counter (PerkinElmer, Waltham, MA).
After culturing HEK293FT cells transfected with Strep-EV or Strep-TM4SF5 expression vectors, or Huh7KO cells stably expressing pBabe-HA-EV or pBabe-HA-TM4SF5, cell extracts were obtained. Extracts containing 1 mg of protein were pulled down by reacting with streptavidin agarose resin for Strep-tagged TM4SF5 or with an anti-HA antibody for HA-tagged TM4SF5 at 4°C for 4 hours. The pulled-down proteins were treated with ^14C-labelled ST-5-002 at various concentrations (10 nM, 100 nM, 1 µM, 5 µM, 10 µM, 50 µM) and reacted at 4°C for 1 hour, after which radioactive isotope values were repeatedly measured using a TriCarb scintillation counter (PerkinElmer, Waltham, MA). The EC50 was calculated by normalizing the average radioactive isotope value of TM4SF5 obtained through the measurements by dividing it by the average value of EV.
(a) Expression vectors for a control vector, TM4SF1, TM4SF5 WT, and R113Q, C118/145A, H127A, and N138A mutants of TM4SF5 were injected into the HEK293FT cell line, which was confirmed not to express TM4SF5, and allowed to express for 48 hours. (b) Huh7KO cell lines, in which TM4SF5 was knocked out in Huh7, were stably infected with a retrovirus encoding pBabe-EV or pBabe-TM4SF5-HA. […] For the experimental samples of each condition, radioactive isotope values were repeatedly measured using a TriCarb scintillation counter (PerkinElmer, Waltham, MA).

SNU449T7 cells = assay: Subcutaneous xenograft liver cancer model in severely combined immunodeficient animals; format: in vivo, NOD-SCID mice
Method: Cells expressing TM4SF5 (SNU449T7) were cultured in a cell incubator at 37°C and 5% CO2. The next day, the cells were detached by treating with a T/E (Trypsin/EDTA) solution and centrifuged at 150 × g for 3 minutes to obtain a cell pellet. Thereafter, the supernatant was removed, and the pellet was prepared by resuspension in phosphate buffered saline (PBS). For the generation of cancer tissue, 5 × 10^5 cells/100 µl were injected once subcutaneously into the right thigh area of 6-week-old male NOD/SCID mice. At this time, the animals were anesthetized by inhalation with […] isoflurane and injected. From the 15th day after the cell injection, drug ST-5-002 was intraperitoneally injected at 2.5 mg/kg of body weight at 100 µl per dose for a total of 8 times every 3 days. The body weight and tumor volume of the animals were measured every 3 days from the 12th day after the cell injection. The tumor volume was calculated as (length × width × width)/2 (mm^3) by measuring the length and width of the tumor. On the 36th day after the cell (SNU449T7) injection, the animals were sacrificed, and cancer tissues were obtained and analyzed.
SNU449T7 cells were subcutaneously injected into the thighs of 6-week-old male NOD/CB17-Prkdc^scid/J mice (NOD-SCID mice lacking or having non-functional immune cells such as T cells, B cells, and NK cells, n=10), at a dose of 5X10^5 cells. One week later, vehicle or the drug ST-5-002 was intravenously injected at a concentration of 2.5 mg/kg of body weight (mpk) twice a week. Three days after the 8th drug injection, the animals were sacrificed, cancer tissues were recovered and photographed, and immunohistochemistry, Western blot, and qRT-PCR analyses were performed.

SMILES: Cc1ccc(C(=O)Nc2ccc(-c3cc(-c4ccc(O)cc4)no3)cc2)cc1 [ST-5-002, N-(4-(3-(4-hydroxyphenyl)isoxazole-5-yl)phenyl)-4-methylbenzamide]
- EC50 ([1]; 14C-labelled ST-5-002, Strep-TM4SF5, 4°C, 1 hour (FIG. 19a), read-out: EC50 of binding to TM4SF5): 8.87 µM
- binding of 14C-labelled ST-5-002 compared to the control and TM4SF1 ([1]; Strep-TM4SF5 from HEK293FT (FIG. 19a)): bound
- EC50 ([1]; range depending on the cell source and the type of tag (Strep-TM4SF5 and HA-TM4SF5), read-out: EC50 values of binding to TM4SF5): 0.85 to 8.8 µM
- inhibitory efficacy in cancer formation in terms of tumor volume and weight (SNU449T7 cells; 2.5 mg/kg of body weight (mpk), 8 injections (FIG. 24c)): statistically significant inhibitory efficacy
- tumor size (SNU449T7 cells; 2.5 mg/kg of body weight (mpk), 8 injections, vs vehicle (FIG. 24b)): decreased
- SLAMF7 staining in the small cancer areas (SNU449T7 cells; immunostaining (FIG. 24d)): much more distinctly strong staining level
- degree of PD-L1 staining (SNU449T7 cells; immunostaining (FIG. 24d)): decreased
- expression of TM4SF5 (SNU449T7 cells; immunostaining (FIG. 24d)): did not change significantly
- expressions of AFP and laminin γ2 (SNU449T7 cells; immunostaining (FIG. 24d)): significantly reduced
- staining level of F4/80 and expressions of CCL5 and CCL20 (SNU449T7 cells; immunostaining, vs control group (FIG. 24d)): lower
